≈ marks a conversion by molar mass, not a printed value. Like-named read-outs stand apart in the source and are kept apart here.
Legend:
Assay in all cases: microbe, parasite or virus in culture
Assay type in all cases: cell-based, Escherichia coli
CHL80 (evolved MG1655) = settings: broth microdilution, chloramphenicol-evolved strain; for MIC: Escherichia coli, MG1655
Text: (§1) To ensure the stable resistance evolution and inheritance of MG1655 under different drugs, we randomly selected three monoclonals from the evolved strains. The final antibiotic-evolved strains were designated as AMP120, AZI120, CHL80, CIP120, DOX120, KAN80, NIT70, and TMP30, while the final AMP-evolved strains were named COL120, Ind120, Omi120, Pex120, PGLA120, Pleu120, R8120, SAAP120, LI120, and SLAP120.
(§2) The broth microdilution method was used to measure the MIC values of antibiotics and peptides according to the Clinical and Laboratory Standards Institute guidelines. The MIC value is defined as the lowest drug concentration without visible bacteria.

KAN80 (evolved MG1655) = settings: for MIC: Escherichia coli, MG1655
Text: as §1, §2

COL120 (evolved MG1655) = settings: broth microdilution, colistin-evolved strain; for MIC: Escherichia coli, MG1655
Text: as §1, §2

TMP30 (evolved MG1655) = settings: broth microdilution, trimethoprim-evolved strain; for MIC: Escherichia coli, MG1655
Text: as §1, §2

AMP120 (evolved MG1655) = settings: broth microdilution, ampicillin-evolved strain; for MIC: Escherichia coli, MG1655
Text: as §1, §2

CIP120 (evolved MG1655) = settings: broth microdilution, ciprofloxacin-evolved strain; for MIC: Escherichia coli
Text: as §1, §2

AZI120 (evolved MG1655) = settings: broth microdilution, azithromycin-evolved strain; for MIC: Escherichia coli, MG1655
Text: as §1, §2

DOX120 (evolved MG1655) = settings: broth microdilution, doxycycline-evolved strain; for MIC: Escherichia coli, MG1655
Text: as §1, §2

NIT70 (evolved MG1655) = settings: broth microdilution, nitrofurantoin-evolved strain; for MIC: Escherichia coli, MG1655
Text: as §1, §2

E. coli K-12 MG1655 = settings: for MIC: Escherichia coli
Method: as §2
Eight antibiotics and ten AMPs at the sub-inhibitory concentration were prepared. A 300-µL system, including 260 µL of MH broth, 30 µL of prepared drug, and 10 µL of bacterial culture, was used for resistance passages. After 12 h of incubation at 37℃ and 200 rpm, 10 µL of the above bacterial culture was added into the new sterile drug-containing broth. MIC values of bacterial culture were determined. The drug concentration was adjusted according to the MIC value change until the end of the 120 passages.

[1] = broth microdilution, kanamycin-evolved strain
[2] = MG1655, 12 h, read-out: MIC of MG1655 under the pressure of the same drug, generation 10
[3] = MG1655, read-out: MIC of MG1655 under the pressure of the same drug, generation primary
[4] = MG1655, as E2, generation 20, read-out: MIC of MG1655 under the pressure of the same drug, generation 20
[5] = MG1655, as E2, generation 30, read-out: MIC of MG1655 under the pressure of the same drug, generation 30
[6] = MG1655, as E2, generation 40, read-out: MIC of MG1655 under the pressure of the same drug, generation 40
[7] = MG1655, as E2, generation 50, read-out: MIC of MG1655 under the pressure of the same drug, generation 50
[8] = MG1655, as E2, generation 60, read-out: MIC of MG1655 under the pressure of the same drug, generation 60
[9] = MG1655, as E2, generation 70, read-out: MIC of MG1655 under the pressure of the same drug, generation 70
[10] = MG1655, as E2, generation 80, read-out: MIC of MG1655 under the pressure of the same drug, generation 80

Row | Structure (SMILES) | MIC (CHL80 (evolved MG1655)) | MIC (KAN80 (evolved MG1655); [1]) | MIC (COL120 (evolved MG1655)) | MIC (TMP30 (evolved MG1655)) | MIC (AMP120 (evolved MG1655)) | MIC (CIP120 (evolved MG1655)) | MIC (AZI120 (evolved MG1655)) | MIC (DOX120 (evolved MG1655)) | MIC (NIT70 (evolved MG1655)) | MIC (E. coli K-12 MG1655; [2]) | MIC (E. coli K-12 MG1655; [3]) | MIC (E. coli K-12 MG1655; [4]) | MIC (E. coli K-12 MG1655; [5]) | MIC (E. coli K-12 MG1655; [6]) | MIC (E. coli K-12 MG1655; [7]) | MIC (E. coli K-12 MG1655; [8]) | MIC (E. coli K-12 MG1655; [9]) | MIC (E. coli K-12 MG1655; [10]) | other results
1 | NC[C@H]1O[C@H](O[C@H]2[C@H](O)[C@@H](O[C@H]3O[C@H](CO)[C@@H](O)[C@H](N)[C@H]3O)[C@H](N)C[C@@H]2N)[C@H](O)[C@@H](O)[C@@H]1O [KAN, Kanamycin] | – | – | – | – | – | – | – | – | – | – | – | – | – | – | – | – | – | – | MIC values of evolved MG1655, strain CHL80 (CHL80 (evolved MG1655)): 2 µg/mL; MIC values of evolved MG1655, strain KAN80 (KAN80 (evolved MG1655); [1]): 512 µg/mL; MIC values of evolved MG1655, strain COL120 (COL120 (evolved MG1655)): 4 µg/mL; MIC values of evolved MG1655, strain TMP30 (TMP30 (evolved MG1655)): 4 µg/mL; MIC values of evolved MG1655, strain AMP120 (AMP120 (evolved MG1655)): 1 µg/mL; MIC values of evolved MG1655, strain CIP120 (CIP120 (evolved MG1655)): 4 µg/mL; MIC values of evolved MG1655, strain AZI120 (AZI120 (evolved MG1655)): 4 µg/mL; MIC values of evolved MG1655, strain DOX120 (DOX120 (evolved MG1655)): 2 µg/mL; MIC values of evolved MG1655, strain NIT70 (NIT70 (evolved MG1655)): 4 µg/mL; increase in MIC values after experimental evolution (E. coli K-12 MG1655; MG1655, sub-inhibitory drug in MH broth over 60 days, final vs primary MIC): 256 fold; MIC of MG1655 under the pressure of the same drug, generation 20 (E. coli K-12 MG1655; as E2, generation 20): 32 µg/mL; MIC of MG1655 under the pressure of the same drug, generation 30 (E. coli K-12 MG1655; as E2, generation 30): 64 µg/mL; MIC of MG1655 under the pressure of the same drug, generation 40 (E. coli K-12 MG1655; as E2, generation 40): 64 µg/mL; MIC of MG1655 under the pressure of the same drug, generation 50 (E. coli K-12 MG1655; as E2, generation 50): 128 µg/mL; MIC of MG1655 under the pressure of the same drug, generation 60 (E. coli K-12 MG1655; as E2, generation 60): 256 µg/mL; MIC of MG1655 under the pressure of the same drug, generation 70 (E. coli K-12 MG1655; as E2, generation 70): 256 µg/mL; MIC of MG1655 under the pressure of the same drug, generation 80 (E. coli K-12 MG1655; as E2, generation 80): 512 µg/mL; MIC of MG1655 under the pressure of the same drug, generation primary (E. coli K-12 MG1655; broth microdilution (CLSI), primary MG1655 before passage): 2 µg/mL; MIC of MG1655 under the pressure of the same drug, generation 10 (E. coli K-12 MG1655; broth microdilution, line passaged in MH broth with sub-inhibitory drug, 12 h per passage, 37℃, generation 10): 16 µg/mL
2 | CC1(C)S[C@@H]2[C@H](NC(=O)[C@H](N)c3ccccc3)C(=O)N2[C@H]1C(=O)O [AMP, Ampicillin] | 64 µg/mL (≈ 183 µM) | 4 µg/mL (≈ 11.4 µM) | 4 µg/mL (≈ 11.4 µM) | 4 µg/mL (≈ 11.4 µM) | 64 µg/mL (≈ 183 µM) | 16 µg/mL (≈ 45.8 µM) | 2 µg/mL (≈ 5.72 µM) | 32 µg/mL (≈ 91.6 µM) | 4 µg/mL (≈ 11.4 µM) | 8 µg/mL | 4 µg/mL | 8 µg/mL | 8 µg/mL | 16 µg/mL | 16 µg/mL | 16 µg/mL | 16 µg/mL | 16 µg/mL | MIC (E. coli K-12 MG1655; MG1655, as E2, generation 90, read-out: MIC of MG1655 under the pressure of the same drug, generation 90): 32 µg/mL; MIC (E. coli K-12 MG1655; MG1655, as E2, generation 100, read-out: MIC of MG1655 under the pressure of the same drug, generation 100): 32 µg/mL; MIC (E. coli K-12 MG1655; MG1655, as E2, generation 110, read-out: MIC of MG1655 under the pressure of the same drug, generation 110): 64 µg/mL; MIC (E. coli K-12 MG1655; MG1655, as E2, generation 120, read-out: MIC of MG1655 under the pressure of the same drug, generation 120): 64 µg/mL
3 | O=C(N[C@H](CO)[C@H](O)c1ccc([N+](=O)[O-])cc1)C(Cl)Cl [CHL, Chloramphenicol] | 512 µg/mL (≈ 1580 µM) | 2 µg/mL (≈ 6.19 µM) | 8 µg/mL (≈ 24.8 µM) | 8 µg/mL (≈ 24.8 µM) | 16 µg/mL (≈ 49.5 µM) | 32 µg/mL (≈ 99 µM) | 8 µg/mL (≈ 24.8 µM) | 64 µg/mL (≈ 198 µM) | 8 µg/mL (≈ 24.8 µM) | 8 µg/mL | 8 µg/mL | 16 µg/mL | 32 µg/mL | 64 µg/mL | 128 µg/mL | 256 µg/mL | 256 µg/mL | 512 µg/mL | collateral sensitivity of KAN80 (fold change of MIC vs wild-type MG1655) (KAN80 (evolved MG1655); MIC of KAN80 compared with MG1655): exceeding fourfold

— article PMC11915801, “Evolutionary trajectory of bacterial resistance to antibiotics and antimicrobial peptides in Escherichia coli” (mSystems, 2025)
